Columns and labels:
[1] = test system: Aspergillus fumigatus B42928; test: Antifungal activity in vitro (resazurin susceptibility screen), Inf. E; type: cell-based; settings: Aspergillus fumigatus B42928, 27 °C, 48 hours, resa time 17 hours
Outline: (§1)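 Compound serial dilutions were spotted onto test plates, kept in the dark at 4 °C for at most 2 weeks. Cryopreserved isolates were diluted 1/1000 in medium just before use and added at 10^3 cfu per well. Each plate carried drug-free culture as 100% growth and RPMI-MOPS medium alone as 0% growth.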

[2] = test system: Cryptococcus neoformans B66663; test: Antifungal activity in vitro (resazurin susceptibility screen), Inf. F; type: cell-based; settings: 37 °C, 24 hours, resa time 4 hours
Outline: as §1

[3] = test system: Sporothrix schenkii B62482; test: Antifungal activity in vitro (resazurin susceptibility screen), Inf. A; type: cell-based; settings: 27 °C, 4 days, resa time 24 hours, highest in-test concentration 64 μM
Outline: as §1

[4] = Liver metabolic stability assay, gpLM; type: in vitro ADME, guinea pig; settings: guinea pig microsomes, 1 mg protein/ml, 5 μM test compound, 15 min, 37 °C
Procedure: (§2) Liver preparations (microsomal fractions) were obtained from BD Gentest (San Jose, Calif., US). Metabolic stability was assessed using the following assay conditions. […] The mixture was pre-incubated at 37° C. for 5 min and the enzymatic reaction was started by addition of 5 μM test compound. After 0 (control) and 15 minutes (min), the reactions were terminated by addition of […] (500 μl). The precipitated material was removed by centrifugation at 1200 g for 10 min. The supernatant was analysed by LC-MS/MS on a ThermoFinnigan LCQ Deca XP ion-trap mass spectrometer equipped with an atmospheric pressure chemical ionisation source. Calculation of %-compound remaining was as described by Kantharaj et al. 2003 ((Kantharaj E., Tuytelaars A, Proost P E A, Ongel Z, van […] (2003). Simultaneous measurement of drug metabolic stability and identification of metabolites using ion-trap mass spectrometry.

[5] = Liver metabolic stability assay, mLM; type: in vitro ADME; settings: mouse liver microsomes, 1 mg protein/ml, 5 μM test compound, 15 min, 37 °C
Procedure: as §2

[6] = Liver metabolic stability assay, hLM; type: in vitro ADME, human; settings: human liver microsomes, 1 mg protein/ml, 5 μM test compound, 15 min, 37 °C
Procedure: as §2

[7] = test system: Trichophyton mentagrophytes B70554; test: Antifungal activity in vitro (resazurin susceptibility screen), Inf. G; type: cell-based; settings: 27 °C, 7 days, resa time 24 hours
Outline: (§3)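 Each well was inoculated with 10^3 cfu of fungus onto dried, pre-spotted compound serial dilutions in RPMI-MOPS medium, with fungal growth read by resazurin. Growth was referenced to drug-free culture (100%) and medium-only (0%) controls on each plate.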

[8] = test system: Trichophyton rubrum B68183; test: Antifungal activity in vitro (resazurin susceptibility screen), Inf. C; type: cell-based; settings: Trichophyton rubrum B68183, 27 °C, 7 days, resa time 24 hours
Outline: as §1

CYP3A4 = CYP3A4 (Homo sapiens, UniProt P08684); test: Cytochrome P450 inhibition, Protocol A, cDNA expressed proteins, fluorogenic substrates; type: in vitro ADME; settings: % inhibition at 10 μM, cDNA expressed protein
Chain of CYP3A4 (P08684 whole entry): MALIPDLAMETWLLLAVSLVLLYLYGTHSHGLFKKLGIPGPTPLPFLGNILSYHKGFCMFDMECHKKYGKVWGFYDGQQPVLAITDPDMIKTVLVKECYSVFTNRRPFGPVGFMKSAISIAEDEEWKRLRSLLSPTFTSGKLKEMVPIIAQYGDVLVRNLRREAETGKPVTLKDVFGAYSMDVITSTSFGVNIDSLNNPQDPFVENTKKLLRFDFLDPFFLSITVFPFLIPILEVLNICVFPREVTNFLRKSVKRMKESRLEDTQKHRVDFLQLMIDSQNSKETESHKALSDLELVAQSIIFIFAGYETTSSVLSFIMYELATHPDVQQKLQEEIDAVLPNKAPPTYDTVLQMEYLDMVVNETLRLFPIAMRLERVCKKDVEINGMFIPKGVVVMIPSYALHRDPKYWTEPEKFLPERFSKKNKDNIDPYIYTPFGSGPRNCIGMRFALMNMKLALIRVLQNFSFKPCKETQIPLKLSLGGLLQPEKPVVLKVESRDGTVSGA
Procedure: (§4) All fluorogenic based assays were performed in Black Costar 96-well plates according to Crespi et al 1997 with minor modifications (Crespi C L, Miller V P & Penman B W (1997). Microtiter plate assays for inhibition of human, drug-metabolizing cytochromes P450. Anal. Biochem. Vol 248, 1898-1900). Assay conditions are outlined in Table 5a. For cytochrome P450 3A4, three different fluorogenic substrates were used. Each reaction mixture consisted of the appropriate concentration of enzyme, NADPH-generating system (“NADPH” means β-nicotinamide adenine dinucleotide phosphate, reduced), substrate in sodium/potassium buffer (pH 7.4). For each cytochrome P450 batch Michealis-Menten kinetics were determined using 11 concentrations.
(§5) Thereafter, further dilutions were made in acetonitrile. […] The compounds were serially diluted to give final concentrations ranging from 1 nM to 10 μM. The reaction mixtures, whereby 1 μL of buffer was replaced by compound solution, were pre-warmed for 5 min at 37° C. and the reaction was initiated by the addition of β-nicotinamide adenine dinucleotide phosphate (NADP+). Reactions were terminated by addition of stopping reagent and the fluorescence was measured using a Fluoroscan (Labsystems, Brussel, Belgium).
(§6) In Table 5a, the following abbreviations were used: 3-cyano-7-ethocycoumarin (CEC), 7-methoxy-4-trifluoromethylcoumarin (MFC), 3-[2-(N,N-diethyl-N-methylamino)ethyl]-7-methoxy-4-methylcoumarin (AMMC), 7-benzyloxy-trifluoromethyl coumarin (BFC), 7-benzyloxyquinoline (BQ) and dibenzyl fluorescein (DBF).

[9] = test system: Candida parapsilosis B66126; test: Antifungal activity in vitro (resazurin susceptibility screen), Inf. D; type: cell-based; settings: Candida parapsilosis B66126; 37 °C, 24 hours, resa time 4 hours
Outline: as §3

CYP2D6 = CYP2D6 (Homo sapiens, UniProt P10635); test: Cytochrome P450 inhibition, Protocol A, cDNA expressed proteins, fluorogenic substrate; type: in vitro ADME; settings: % inhibition at 10 μM; substrate AMMC; cDNA expressed protein
Chain of CYP2D6 (P10635 whole entry): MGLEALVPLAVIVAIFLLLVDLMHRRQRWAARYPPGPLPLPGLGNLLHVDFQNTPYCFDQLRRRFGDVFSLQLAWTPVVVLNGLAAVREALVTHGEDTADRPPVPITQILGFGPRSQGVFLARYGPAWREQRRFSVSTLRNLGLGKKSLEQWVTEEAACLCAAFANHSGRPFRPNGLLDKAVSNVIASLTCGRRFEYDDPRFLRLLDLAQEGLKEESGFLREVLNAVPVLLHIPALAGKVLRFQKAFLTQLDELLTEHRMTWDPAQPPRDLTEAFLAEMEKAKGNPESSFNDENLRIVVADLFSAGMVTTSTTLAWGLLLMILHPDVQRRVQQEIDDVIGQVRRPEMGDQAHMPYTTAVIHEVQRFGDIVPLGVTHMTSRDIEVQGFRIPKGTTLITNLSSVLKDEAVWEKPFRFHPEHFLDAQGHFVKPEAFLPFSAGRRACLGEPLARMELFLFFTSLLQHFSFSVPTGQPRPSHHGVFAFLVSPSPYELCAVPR
Procedure: as §4, §5, §6

CYP1A2 = biological target: T1, CYP1A2 (Homo sapiens, UniProt P05177); test: as above; type: in vitro ADME; settings: % inhibition at 10 μM; substrate CEC; cDNA expressed protein
T1 sequence (P05177 1-516): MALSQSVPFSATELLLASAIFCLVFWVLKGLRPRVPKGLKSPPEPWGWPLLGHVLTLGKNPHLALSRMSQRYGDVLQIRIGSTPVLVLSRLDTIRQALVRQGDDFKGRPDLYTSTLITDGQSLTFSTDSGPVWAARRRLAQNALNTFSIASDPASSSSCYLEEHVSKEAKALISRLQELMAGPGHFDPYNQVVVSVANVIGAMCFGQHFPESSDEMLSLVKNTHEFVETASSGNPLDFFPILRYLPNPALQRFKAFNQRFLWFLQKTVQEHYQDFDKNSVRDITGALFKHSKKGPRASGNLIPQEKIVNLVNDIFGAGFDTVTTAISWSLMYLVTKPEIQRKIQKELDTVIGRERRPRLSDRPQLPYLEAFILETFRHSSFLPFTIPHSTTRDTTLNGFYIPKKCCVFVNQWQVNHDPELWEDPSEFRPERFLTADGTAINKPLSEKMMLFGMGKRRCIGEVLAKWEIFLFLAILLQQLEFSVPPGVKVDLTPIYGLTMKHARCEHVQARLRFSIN
Procedure: as §4, §5, §6

CYP2C9 = CYP2C9 (Homo sapiens, UniProt P11712); test: as above; type: in vitro ADME; settings: % inhibition at 10 μM; substrate MFC; cDNA expressed protein
Chain of CYP2C9 (P11712 whole entry): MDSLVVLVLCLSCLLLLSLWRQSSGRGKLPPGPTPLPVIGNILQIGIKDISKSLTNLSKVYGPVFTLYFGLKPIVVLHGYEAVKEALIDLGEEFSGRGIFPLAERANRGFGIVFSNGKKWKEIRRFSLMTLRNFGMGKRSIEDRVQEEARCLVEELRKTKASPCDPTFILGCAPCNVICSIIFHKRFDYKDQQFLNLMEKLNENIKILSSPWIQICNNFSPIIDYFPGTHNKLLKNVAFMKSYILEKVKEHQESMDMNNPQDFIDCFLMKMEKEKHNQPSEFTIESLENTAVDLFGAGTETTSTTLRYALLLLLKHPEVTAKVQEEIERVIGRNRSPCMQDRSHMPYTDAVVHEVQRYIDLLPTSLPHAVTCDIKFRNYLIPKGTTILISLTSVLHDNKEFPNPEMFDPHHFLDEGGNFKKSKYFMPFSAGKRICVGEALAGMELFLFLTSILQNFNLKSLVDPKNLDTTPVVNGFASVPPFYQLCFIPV
Procedure: as §4, §5, §6

Microsporum canis B68128 = test: Antifungal activity in vitro (resazurin susceptibility screen), Inf. B; type: cell-based; settings: Microsporum canis B68128; 27 °C, 9 days, resa time 24 hours
Outline: as §3

Cytochrome P450 2C9 = Cytochrome P450 2C9 (Homo sapiens, UniProt P11712); test: Human liver microsomal cytochrome P450 cocktail inhibition assay, Protocol C; settings: 2C9 Tolbut pIC50, human liver microsomes 0.2 mg/ml; probe tolbutamide 100 microM
Chain of Cytochrome P450 2C9 (P11712 whole entry): as above
Procedure: (§7) Probe substrates and final assay concentrations with the appropriate internal standard are outlined in Table 6a.
(§8) Assays were performed in 0.1 M phosphate buffer (pH 7.4), containing 0.2 mg/ml human liver microsomes (BD Gentest) and a probe substrate mix consisting of: phenacetin, tolbutamide, S-mephenyloin, dextromethorphan, amodiaquine and midazolam (Table 6a) and a range of test compound concentrations (0 to 30 micromolar) in a total volume of 100 microliters. After a 10 min pre-incubation at 37° C., the reaction was started with addition of NADPH at a final concentration of 1.0 mM. […] The samples are centrifuged for 10 min at 4° C. at 4000 rpm and 60 microliters supernatant is diluted with 180 microliters water. Each sample is injected onto a UPLC/MS system for the simultaneous measurement of the probe substrate metabolites and their associated deuterated internal standards. Percentage inhibition is calculated according to: %-inhibition=(1−Ri/R)*100, whereby Ri and R are the metabolite to internal standard peak area ratios in the presence and absence of inhibitor respectively.
(§9) Percentage inhibition data are plotted against the Log transformed test compound concentration and after curve fitting the IC50-value is determined.

Cytochrome P450 2C19 = Cytochrome P450 2C19 (Homo sapiens, UniProt P33261); test: as above; settings: 2C19_S-Meph pIC50, human liver microsomes 0.2 mg/ml; probe S-mephenytoin 30 microM
Chain of Cytochrome P450 2C19 (P33261 whole entry): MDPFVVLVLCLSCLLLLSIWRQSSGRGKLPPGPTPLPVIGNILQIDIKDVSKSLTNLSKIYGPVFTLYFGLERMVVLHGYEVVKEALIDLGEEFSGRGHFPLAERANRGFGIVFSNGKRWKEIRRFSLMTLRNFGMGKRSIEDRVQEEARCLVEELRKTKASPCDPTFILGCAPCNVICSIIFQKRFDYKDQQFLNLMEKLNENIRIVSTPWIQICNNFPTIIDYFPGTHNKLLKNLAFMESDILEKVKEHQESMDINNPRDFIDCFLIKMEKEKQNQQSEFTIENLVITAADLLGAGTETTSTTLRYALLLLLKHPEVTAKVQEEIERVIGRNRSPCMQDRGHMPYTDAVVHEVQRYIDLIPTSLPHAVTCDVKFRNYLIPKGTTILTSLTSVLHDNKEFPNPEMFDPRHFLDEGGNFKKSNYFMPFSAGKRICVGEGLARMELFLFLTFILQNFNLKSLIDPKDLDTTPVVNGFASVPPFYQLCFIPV
Procedure: as §7, §8, §9

Cytochrome P450 1A2 = biological target: T2, Cytochrome P450 1A2 (Homo sapiens, UniProt P05177); test: as above
T2 sequence (P05177 1-516): T1 sequence (P05177 1-516)
Procedure: as §7, §8, §9

Cytochrome P450 2D6 = Cytochrome P450 2D6 (Homo sapiens, UniProt P10635); test: as above; settings: 2D6_Dextro pIC50, human liver microsomes 0.2 mg/ml; probe dextromethorphan 3 microM
Chain of Cytochrome P450 2D6 (P10635 whole entry): as the sequence (P10635 whole entry) above
Procedure: as §7, §8, §9

Cytochrome P450 2C8 = biological target: T3, Cytochrome P450 2C8 (Homo sapiens, UniProt P10632); test: as above; type: in vitro ADME; settings: human liver microsomes 0.2 mg/ml; probe amodiaquine 2 microM; read-out: 2C8_Amod pIC50 (converted)
T3 construct: tissue BD Gentest; host or cells: human liver microsomes
T3 sequence (P10632 1-490): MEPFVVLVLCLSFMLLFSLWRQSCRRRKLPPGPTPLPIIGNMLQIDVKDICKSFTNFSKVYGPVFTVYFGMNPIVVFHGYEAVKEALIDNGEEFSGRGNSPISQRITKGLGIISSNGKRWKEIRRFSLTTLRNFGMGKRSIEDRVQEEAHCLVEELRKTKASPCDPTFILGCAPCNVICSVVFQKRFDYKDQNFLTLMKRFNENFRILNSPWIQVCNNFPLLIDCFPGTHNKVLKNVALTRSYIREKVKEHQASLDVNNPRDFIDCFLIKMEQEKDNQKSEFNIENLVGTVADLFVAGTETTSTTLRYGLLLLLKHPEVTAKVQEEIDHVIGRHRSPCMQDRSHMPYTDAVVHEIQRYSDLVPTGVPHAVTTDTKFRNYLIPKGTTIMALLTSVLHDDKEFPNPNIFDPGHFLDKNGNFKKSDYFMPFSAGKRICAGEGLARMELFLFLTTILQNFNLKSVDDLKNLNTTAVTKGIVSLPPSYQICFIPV
Procedure: as §7, §8, §9

Compound | IC50 (Cytochrome P450 2C9) [µM] | IC50 (Cytochrome P450 2C19) [µM] | IC50 (Cytochrome P450 1A2) [µM] | IC50 (Cytochrome P450 2D6) [µM] | IC50 (Cytochrome P450 2C8) [µM] | other results
CC(=O)c1ccc(C2NCc3c(Cl)cccc3-n3cccc32)cc1.Cl (stereo not drawn) [Compound 5, 1-[4-(7-chloro-5,6-dihydro-4H-pyrrolo[1,2-a][1,4]benzodiazepin-4-yl)phenyl]-ethanone .HCl] | – | – | – | – | – | IC50 ([1]; read-out: Inf. E pIC50 (converted)): 2 µM; IC50 ([2]; Cryptococcus neoformans, B66663, Cryptococcus neoformans B66663, read-out: Inf. F pIC50 (converted)): 25.1 µM; IC50 ([3]; Sporothrix, B62482, Sporothrix schenkii B62482, read-out: Inf. A pIC50 (converted)): 39.8 µM; %-compound metabolised Met_gpLM [4]: 88%; %-compound metabolised Met_mLM [5]: 72%; %-compound metabolised_Met_hLM [6]: 59%; IC50 ([7]; Trichophyton mentagrophytes, B70554, Trichophyton mentagrophytes B70554, read-out: Inf. G pIC50 (converted)): 0.631 µM; IC50 ([8]; read-out: Inf. C pIC50 (converted)): 0.501 µM
CC(=O)c1ccc(C2=NCc3c(ccc(Cl)c3Cl)-n3cccc32)cc1.Cl [Compound 21, 1-[4-(7,8-dichloro-6H-pyrrolo[1,2-a][1,4]benzodiazepin-4-yl)phenyl]-ethanone .HCl] | – | – | – | – | – | Inf. E pIC50 [1]: <4.2; Inf. F pIC50 ([2]; Cryptococcus neoformans B66663): <4.2; hCYP3A4_BFC_Pct_Inh (CYP3A4; substrate BFC): 0%; hCYP3A4_BQ_Pct_Inh (CYP3A4; substrate BQ): 26%; hCYP3A4_DBF_Pct_Inh (CYP3A4; substrate DBF): 26%; Inf. D pIC50 [9]: <4.2; Inf. A pIC50 ([3]; Sporothrix schenkii B62482): <4.2; hCYP2D6_AMMC_Pct_Inh (CYP2D6): 39%; hCYP1A2_CEC_Pct_Inh (CYP1A2): 27%; hCYP2C9_MFC_Pct_Inh (CYP2C9): 54%; %-compound metabolised Met_gpLM [4]: 64%; %-compound metabolised Met_mLM [5]: 24%; %-compound metabolised_Met_hLM [6]: 17%; Inf. G pIC50 ([7]; Trichophyton mentagrophytes B70554): <4.2; Inf. B pIC50 (Microsporum canis B68128): <4.2; Inf. C pIC50 [8]: <4.2
CC(=O)c1ccc(C2=NCc3c(Cl)cccc3-n3cccc32)cc1 [drawing 91] | > 10 | > 10 | > 10 | > 10 | > 10 | –
CCc1ccc(C2=NCc3c(Cl)cccc3-n3cccc32)cc1 [drawing 92] | > 10 | 1.58 | > 10 | > 10 | > 10 | –
CS(=O)(=O)c1ccc(C2=NCc3c(Cl)cccc3-n3cccc32)cc1 [drawing 93] | > 10 | > 10 | > 10 | 7.59 | > 10 | –
CC(O)c1ccc(C2NCc3c(Cl)cccc3-n3cccc32)cc1 (stereo not drawn) [drawing 97] | > 10 | 5.13 | > 10 | > 10 | > 10 | –
CC(=O)c1cccc(C2NCc3c(Cl)cccc3-n3cccc32)c1 (stereo not drawn) [drawing 99] | 1.58 | 0.158 | > 10 | 3.16 | 7.94 | –
CC(=O)c1ccc(C2NCc3ccc(Cl)cc3-n3cccc32)cc1 (stereo not drawn) [drawing 101] | 6.31 | 3.16 | > 10 | 7.94 | 7.94 | –

Source: patent US9040523B2, “Antifungal 5,6-dihydro-4H-pyrrolo[1,2-α][1,4]-benzodiazepines and 6H-pyrrolo[1,2-α][1,4]benzodiazepines substituted with benzene derivatives” (JANSSEN PHARMACEUTICA NV, priority 2010, dated 2015)
